Read-outs that look alike come from different tables or passages of the source.
What was measured:
[1] = molecular target: T1, thrombin receptor (PAR-1) (Homo sapiens, UniProt P25116); test: In vitro thrombin receptor binding assay (CHRF membranes); settings: tritiated 721-40 radioligand, read-out: Bndg IC50 (Thrombin receptor binding)
T1 construct: CHRF membranes (Jones, Biochim. Biophys. Acta 1992, 1136, 272) are thawed from −70° C; endogenous in cells; host or cells: CHRF cell membranes
T1 sequence (P25116 22-425): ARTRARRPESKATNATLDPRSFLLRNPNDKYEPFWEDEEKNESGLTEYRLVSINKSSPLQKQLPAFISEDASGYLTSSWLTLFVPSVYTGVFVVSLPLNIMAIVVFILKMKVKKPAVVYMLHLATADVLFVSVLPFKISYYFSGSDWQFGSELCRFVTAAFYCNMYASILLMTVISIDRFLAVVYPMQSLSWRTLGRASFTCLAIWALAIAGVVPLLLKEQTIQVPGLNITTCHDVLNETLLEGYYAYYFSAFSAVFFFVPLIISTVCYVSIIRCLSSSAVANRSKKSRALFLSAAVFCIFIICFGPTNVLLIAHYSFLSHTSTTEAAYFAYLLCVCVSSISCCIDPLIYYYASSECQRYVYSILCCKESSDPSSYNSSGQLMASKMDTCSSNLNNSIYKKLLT
Protocol: In Vitro Thrombin Receptor Binding Assay
CHRF membranes (Jones, Biochim. Biophys. Acta 1992, 1136, 272) are thawed from −70° C., centrifuged at maximum speed for 5 min, washed twice with binding buffer (50 mM HEPES containing 5 mM MgCl2 and 0.1% BSA), and re-suspended in binding buffer (25 μg/[…]). 100 μL of membranes are added to the 24-Wallac plates and delivered to the Tomtech apparatus. In a typical experiment, 6 μL of samples (from a 125 μg/mL intermediary plate, 20% DMSO) and 44 μL buffer are delivered to the plates (final conc. of compounds is 3.7 μg/mL, 0.6% DMSO). Similarly, 6 μL 20% DMSO and 44 μL buffer are delivered to both column 1 (NSB) and column 12 (TB). 10 μL Ser-pFPhe-Har-Leu-Har-Lys-Tyr-NH2 (721–40; 500 μM in deionized water) is added to column 1. 50 μL tritiated 721–40 (specific activity 46 Ci/mmol) is added to all the wells. The plates are mixed well for 20 seconds, incubated for 30 min,and then harvested with 10 mM HEPES/138 mM NaCl using the Skatron harvester. The filters (GF/C Brandel FPXLR 296) are presoaked 3 h in 0.5% polyethylenimine in HEPES/0.1M N-acetylglucosamine) are set in saran wrap and dried for 3 min in the microwave, and placed in sample bags (Wallac 1450-432). 4.5 mL scintillation fluid (Wallac, Betaplate Scint 1205-440) is added. The bags are sealed, placed in filter cassettes (Wallac 1450-104), and analyzed on the microbeta counter.
(§1) Table 7 contains IC50 values (μM) of the compounds in a thrombin receptor binding assay, and IC50 values (μM) against platelet aggregation stimulated by thrombin.

gel-filtered platelets = test: In vitro inhibition of thrombin-induced gel-filtered platelet aggregation; format: cell-based; settings: human gel-filtered platelets, agonist thrombin 50 μL of 1 unit/mL, read-out: Thrmb IC50 (Thrombin-induced aggregation of gel-filtered platelets)
Protocol: In Vitro Inhibition of Thrombin-Induced Gel-Filtered Platelet Aggregation Assay
The percentage of platelet aggregation is calculated as an increase in light transmission of compound-treated platelet concentrate vs. control-treated platelet concentrate. Human blood is obtained from drug free, normal donors in tubes containing 0.13M sodium citrate. Platelet rich plasma (PRP) is collected by centrifugation of whole blood at 200×g for 10 min at 25° C. The PRP (5 mL) is gel filtered through Sepharose 2B (bed volume 50 mL), and the platelet count is adjusted to 2×10^7 platelets per sample. The following constituents are added to a siliconized cuvette: concentrated platelet filtrate and Tyrode's buffer (0.14M NaCl, 0.0027M KCl, 0.012M NaHCO3, 0.76 mM Na2HPO4, 0.0055M glucose, 2 mg/mL BSA and 5.0 mM HEPES @ pH 7.4) in an amount equal to 350 μL 50 μL of 20 mM calcium and 50 μL of the test compound. Aggregation is monitored in a BIODATA aggregometer for the 3 min following the addition of agonist (thrombin 50 μL of 1 unit/mL).
as §1

| Compound | IC50 [1] [µM] | IC50 (gel-filtered platelets; Platelet) [µM] | IC50 (gel-filtered platelets) [µM] |
| --- | --- | --- | --- |
| O=C(Nc1ccc2c(CN3CCCC3)cn(Cc3c(Cl)cccc3Cl)c2c1)N[C@@H](Cc1ccc(F)c(F)c1)C(=O)N[C@@H](Cc1c[nH]cn1)C(=O)NCc1ccccc1 [Compound 72] | 1.3 | 0.46 |  |
| NCCNC(=O)[C@H](Cc1ccncc1)NC(=O)[C@H](Cc1ccc(F)c(F)c1)NC(=O)c1ccc2c(CN3CCCC3)cn(Cc3c(Cl)cccc3Cl)c2c1 [Compound 175, L-Alaninamide, N-[[1-[(2,6-dichlorophenyl)methyl]-3-(1-pyrrolidinylmethyl)-1H-indol-6-yl]carbonyl]-3,4-difluoro-L-phenylalanyl-N-(2-aminoethyl)-3-(4-pyridinyl)-] | 0.09 | 1.6 |  |
| C[C@@H](CNC(=O)[C@H](CCCNC(=N)N)NC(=O)[C@H](Cc1ccc(F)c(F)c1)NC(=O)Nc1ccc2c(CN3CCCC3)cn(Cc3c(Cl)cccc3Cl)c2c1)c1ccccc1 [Compound 83] | 0.68 | 0.43 |  |
| NC(N)=NCCC[C@H](NC(=O)[C@H](CCc1ccccc1)NC(=O)Nc1ccc2c(CN3CCCC3)cn(Cc3ccc(F)cc3)c2c1)C(=O)NCc1ccccc1 [Compound 27] | 14.6 | 27.3 |  |
| CN(Cc1ccccc1)C(=O)[C@H](CCCN)NC(=O)[C@H](Cc1ccc(F)c(F)c1)NC(=O)Nc1ccc2c(CN3CCCC3)cn(Cc3c(Cl)cccc3Cl)c2c1 [Compound 111] | 1.9 | 3.2 |  |
| COc1ccc(C[C@H](NC(=O)Nc2ccc3c(c2)c(CN2CCSC2)cn3Cc2ccc(F)cc2)C(=O)N[C@@H](CCCNC(=N)N)C(=O)NCc2ccccc2)cc1 [Compound 163] | 3 | 30 |  |
| CC(C)NCCCC[C@H](NC(=O)[C@H](Cc1ccc(F)c(F)c1)NC(=O)Nc1ccc2c(CN3CCCCC3)cn(Cc3c(Cl)cccc3Cl)c2c1)C(=O)NCc1ccccc1 [Compound 67] | 0.45 | 0.42 |  |
| NC[C@H](NC(=O)[C@H](Cc1ccc(F)c(F)c1)NC(=O)Nc1ccc2c(CN3CCCC3)cn(Cc3c(Cl)cccc3Cl)c2c1)C(=O)NCc1ccccc1 [Compound 101] | 0.92 | 0.41 |  |
| Cc1ccccc1Cn1cc(CN2CCCC2)c2ccc(NC(=O)N[C@@H](Cc3cccc4ccccc34)C(=O)N[C@@H](CCCNC(=N)N)C(=O)NCc3ccccc3)cc21 [Compound 37] | 20.3 | 4.4 |  |
| NC(N)=NCCC[C@H](NC(=O)[C@H](Cc1cccc(F)c1)NC(=O)Nc1ccc2c(CN3CCC(=O)CC3)cn(Cc3c(Cl)cccc3Cl)c2c1)C(=O)NCc1ccccc1 [Compound 88] | 1.7 | 12.6 |  |
| NCC[C@H](NC(=O)[C@H](Cc1cccnc1)NC(=O)Nc1ccc2c(CN3CCCC3)cn(Cc3c(Cl)cccc3Cl)c2c1)C(=O)NCc1ccccc1 [Compound 130] | 4.8 | 27.8 |  |
| NCCC[C@H](NC(=O)[C@H](Cc1ccc(F)c(F)c1)NC(=O)Nc1ccc2c(CN3CCCC3)cn(Cc3c(Cl)cccc3Cl)c2c1)C(=O)NCc1ccc(Cl)c(Cl)c1 [Compound 112] | 2 | 0.93 |  |
| COc1ccc(C[C@H](NC(=O)Nc2ccc3c(CN4CCCC4)cn(Cc4ccc(I)cc4)c3c2)C(=O)N[C@@H](CCCNC(=N)N)C(=O)NCc2ccccc2)cc1 [Compound 23] | 3.1 | 8.6 |  |
| NCC[C@H](NC(=O)[C@H](Cc1cscn1)NC(=O)Nc1ccc2c(CN3CCCC3)cn(Cc3c(Cl)cccc3Cl)c2c1)C(=O)NCc1ccccc1 [Compound 132] | 4.2 | 22 |  |
| CC(=O)NCCC[C@H](NC(=O)[C@H](Cc1ccc(F)c(F)c1)NC(=O)Nc1ccc2c(CN3CCCC3)cn(Cc3c(Cl)cccc3Cl)c2c1)C(=O)NCc1ccccc1 [Compound 94] | 0.81 | 10 |  |
| NCCC[C@H](NC(=O)[C@H](Cc1ccc(F)c(F)c1)NC(=O)Nc1ccc2c(CN3CCCC3)cn(Cc3c(Cl)cccc3Cl)c2c1)C(=O)NCc1cccnc1 [Compound 116] | 0.41 | 1.1 |  |

| Compound | IC50 [1] [µM] | IC50 (gel-filtered platelets; Platelet) [µM] | IC50 (gel-filtered platelets) [µM] |
| --- | --- | --- | --- |
| COc1ccc(C[C@H](NC(=O)Nc2ccc3c(CN4CCCC4)cn(Cc4ccccc4F)c3c2)C(=O)N[C@@H](CCCNC(=N)N)C(=O)NCc2ccccc2)cc1 [Compound 7] | 3.6 | 1.31 |  |
| NCCNC(=O)[C@H](CSC(c1ccccc1)(c1ccccc1)c1ccccc1)NC(=O)[C@H](Cc1ccc(F)c(F)c1)NC(=O)Nc1ccc2c(CN3CCCC3)cn(Cc3c(Cl)cccc3Cl)c2c1 [Compound 151] | 0.45 |  | 2.9 |
| COC[C@H]1CCCN1Cc1cn(Cc2cc(Cl)nc(Cl)c2)c2cc(NC(=O)N[C@@H](Cc3cccc(F)c3)C(=O)N[C@@H](CCCNC(=N)N)C(=O)NCc3ccccc3)ccc12 [Compound 91] | 4 | 22.4 |  |
| COc1ccc(C[C@H](NC(=O)Nc2ccc3c(CN4CCCC4)cn(Cc4c(Cl)cccc4Cl)c3c2)C(=O)N[C@@H](CCCNC(=N)N)C(=O)NCc2ccccc2)cc1 [Compound 14] | 1.4 | 0.49 |  |
| CC(=N)NCCNC(=O)[C@H](CCNC(C)=N)NC(=O)[C@H](Cc1ccc(F)c(F)c1)NC(=O)Nc1ccc2c(CN3CCCC3)cn(Cc3c(Cl)cccc3Cl)c2c1 [Compound 140] | 0.12 | 0.74 |  |
| N=C(N)NCCC[C@H](NC(=O)[C@H](Cc1cccc(F)c1)NC(=O)Nc1ccc2c(CN3CCCC3)cn(Cc3c(Cl)cccc3Cl)c2c1)C(=O)NCc1ccccc1 [Compound 47] | 1.2 | 0.88 |  |
| NCCNC(=O)[C@H](Cc1ccccc1)NC(=O)[C@H](Cc1ccc(Cl)cc1)NC(=O)Nc1ccc2c(CN3CCCC3)cn(Cc3c(Cl)cccc3Cl)c2c1 [Compound 133] | 1.5 | 0.86 |  |
| N=C(N)NCCC[C@H](NC(=O)[C@H](Cc1ccncc1)NC(=O)Nc1ccc2c(CN3CCCC3)cn(Cc3ccc(F)cc3)c2c1)C(=O)NCc1ccccc1 [Compound 24] | 4.8 | 34.8 |  |
| N=C(N)NCCC[C@H](NC(=O)[C@H](Cc1ccc(F)c(F)c1)NC(=O)Nc1ccc2c(CN3CCCC3)cn(CC3CCCCC3)c2c1)C(=O)NCc1ccccc1 [Compound 74] | 0.56 | 2.9 |  |
| C[C@@H](NC(=O)[C@H](CCN)NC(=O)[C@H](Cc1ccc(F)c(F)c1)NC(=O)Nc1ccc2c(CN3CCCC3)cn(Cc3c(Cl)cccc3Cl)c2c1)c1ccccc1 [Compound 157] | 0.48 |  | 0.66 |
| NCC[C@H](NC(=O)[C@H](Cc1ccc(F)c(F)c1)NC(=O)Nc1cccc2c1c(CN1CCCC1)cn2Cc1c(Cl)cccc1Cl)C(=O)NCCN1CCCC1 [Compound 166] | 2 | 40.3 |  |
| Cc1ccccc1Cn1cc(CN2CCCC2)c2ccc(NC(=O)N[C@H](C(=O)N[C@@H](CCCNC(=N)N)C(=O)NCc3ccccc3)c3ccccc3)cc21 [Compound 29] | 8.4 | > 10 |  |
| NCC[C@H](NC(=O)[C@H](Cc1cccs1)NC(=O)Nc1ccc2c(CN3CCCC3)cn(Cc3c(Cl)cccc3Cl)c2c1)C(=O)NCc1ccccc1 [Compound 131] | 1.9 | 0.94 |  |
| COc1ccc(C[C@H](NC(=O)Nc2ccc3c(CN4CCOCC4)cn(Cc4ccc(F)cc4)c3c2)C(=O)N[C@@H](CCCN=C(N)N)C(=O)NCc2ccccc2)cc1 [Compound 40] | 3.9 | > 10 |  |
| COc1ccc(C[C@H](NC(=O)Nc2ccc3c(CN(C)CCCN(C)C)cn(Cc4ccc(F)cc4)c3c2)C(=O)N[C@@H](CCCNC(=N)N)C(=O)NCc2ccccc2)cc1 [Compound 32] | 7.3 | 48.6 |  |

Reference: US7183252B2, “Indole peptidomimetics as thrombin receptor antagonists” (Ortho-McNeil Pharmaceutical, Inc., priority 1999, dated 2007)
